Results: patent publication US9643994B2, “Crystalline polymorphic form of ulipristal acetate” (ASKA PHARMACEUTICAL CO., LTD., priority 2012, dated 2017)
≈ marks a conversion by molar mass, not a printed value. Like-named read-outs stand apart in the source and are kept apart here.

Assay: Solubility in ethanol/water (10/90) mixed solvent at 37° C., HPLC quantitation
Format: physicochemical
Description: [Solubility] […] Then a portion of the suspension was separated.

Structure (SMILES) | Solubility | Solubility (40 mg in 40 mL ethanol/water (volume ratio)=10/90, 37° C., stirred 5 minutes, filtered, HPLC UV 302 nm)
CC(=O)O[C@]1(C(C)=O)CCC2C3CCC4=CC(=O)CCC4=C3[C@@H](c3ccc(N(C)C)cc3)C[C@@]21C (stereo partly drawn) [Comparative Example, 17alpha-acetoxy-11beta-(4-N,N-dimethylaminophenyl)-19-norpregna-4,9-diene-3,20-dione] | 6.4 µg/mL (≈ 13.5 µM) | –
CC(=O)O[C@]1(C(C)=O)CCC2C3CCC4=CC(=O)CCC4=C3[C@@H](c3ccc(N(C)C)cc3)C[C@@]21C (stereo partly drawn) [Example 1, 17alpha-acetoxy-11beta-(4-N,N-dimethylaminophenyl)-19-norpregna-4,9-diene-3,20-dione] | – | 9.2 µg/mL
